Laboratory results published in PMC4291223, “Inhibitors of CLK Protein Kinases Suppress Cell Growth and Induce Apoptosis by Modulating Pre-mRNA Splicing” (PLoS ONE, 2015).

Columns and labels:
SRPK1 = molecular target: T1, SRPK1 (Homo sapiens, UniProt Q96SB4); experiment: In vitro kinase assay (ADP-Glo), SRPK1; type: biochemical; conditions: 5 µM ATP
T1 construct: Full-length human recombinant SRPK1 with a FLAG tag linked to the N-terminus (FLAG-hSRPK1); FLAG (N); made in house; host or cells: Sf9 cells (baculovirus, Bac-to-Bac)
T1 sequence (Q96SB4 whole entry): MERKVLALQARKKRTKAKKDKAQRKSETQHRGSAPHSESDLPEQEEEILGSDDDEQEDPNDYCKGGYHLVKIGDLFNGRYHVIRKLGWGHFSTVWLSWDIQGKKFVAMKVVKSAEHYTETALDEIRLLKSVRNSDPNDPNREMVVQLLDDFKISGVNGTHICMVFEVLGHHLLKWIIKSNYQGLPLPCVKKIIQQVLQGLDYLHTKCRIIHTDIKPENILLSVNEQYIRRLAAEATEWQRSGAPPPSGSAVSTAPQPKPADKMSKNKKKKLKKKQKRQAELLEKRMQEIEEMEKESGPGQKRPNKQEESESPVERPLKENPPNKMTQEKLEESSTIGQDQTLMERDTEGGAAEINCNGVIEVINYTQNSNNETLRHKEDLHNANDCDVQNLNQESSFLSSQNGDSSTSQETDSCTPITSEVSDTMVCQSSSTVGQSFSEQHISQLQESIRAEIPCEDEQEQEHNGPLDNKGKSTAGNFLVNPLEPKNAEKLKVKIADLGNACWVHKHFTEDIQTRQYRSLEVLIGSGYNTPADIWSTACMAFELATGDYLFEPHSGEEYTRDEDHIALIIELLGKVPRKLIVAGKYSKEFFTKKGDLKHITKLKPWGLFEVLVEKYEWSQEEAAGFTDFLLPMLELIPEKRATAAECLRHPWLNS
Protocol: Full-length human recombinant SRPK1 with a FLAG tag linked to the N-terminus (FLAG-hSRPK1) was prepared using a baculovirus expression system. The recombinant baculovirus used to express FLAG-hSRPK1 was constructed according to the protocol provided with the Bac-to-Bac Baculovirus Expression System (Invitrogen, Carlsbad, CA). Sf9 cells were infected with the amplified recombinant baculovirus, cultured at 27°C for 3 days, harvested, and stored at −80°C. The frozen cells were suspended in lysis buffer [50 mM Tris-HCl pH 7.5, 150 mM NaCl, 10% (w/v) glycerol, 1 mM DTT, and complete protease inhibitor cocktail (Roche, Basel, Switzerland)], sonicated for 1 min, and centrifuged at 15,000 × g for 30 min. The soluble fraction was applied to an anti-FLAG M2 affinity gel (Sigma-Aldrich, St. Louis, MO), and FLAG-hSRPK1 was eluted with elution buffer [50 mM Tris-HCl pH 7.5, 10% (w/v) glycerol, 1 mM DTT, and 0.1 mg/mL FLAG peptide]. FLAG-hSRPK1 was further purified by anion exchange chromatography (MonoQ 5/50 GL; GE Healthcare, Piscataway, NJ) and gel filtration chromatography (HiLoad 26/60 Superdex 200 pg; GE Healthcare). Protein concentration was measured using BCA protein assay reagents (Thermo Scientific, Pittsburgh, PA). CLK1 and CLK2 were purchased from Life Technologies (Carlsbad, CA) and SRPK2 and SRPK3 were obtained from Millipore (Billerica, MA).
The ATP concentration for each assay was adjusted to the Km for each kinase. […] ADP was detected using a kinase detection reagent (Promega). The kinase activity of CLK2 was measured using the LANCE® Ultra assay (Perkin-Elmer, Waltham, MA) with ADP-Glo assay buffer. […] The enzyme reactions were terminated by adding 30 mM EDTA, and phosphorylated ULight-MBP peptides were detected using a europium-labeled anti-phospho-MBP antibody diluted with detection buffer (Perkin-Elmer). The plates were read using an EnVision 2102 multilabel reader (Perkin-Elmer). We defined the absorbance of the reaction without enzyme as 100% inhibitory activity and that of the complete reaction mixture as 0% inhibitory activity. […]

[1] = tested on: S6K pre-mRNA splicing in COLO205 cells; experiment: S6K pre-mRNA splicing alteration (quantitative RT-PCR), COLO205; type: cell-based, human; conditions: ratio of S6K exons 6–8 to exons 6–7 is 0.1
Text: (§1) To examine whether inhibition of a particular CLK and/or SRPK contributed to the alternative splicing of S6K pre-mRNA, we used an additional series of compounds with the same scaffold as Cpd-1, Cpd-2, and Cpd-3, but different selectivity. First, we examined the correlation between the enzymatic activity and the level of splicing alterations of S6K pre-mRNA for the individual compounds. We used the exon 7-skipped type of S6K variant to calibrate Rc0.1 values, i.e., the concentrations that induced 10% of the copy number of an alternative isoform compared with that of the canonical isoform. The inhibition of CLK1 and CLK2 activities was correlated with the splicing alteration activities (Rc0.1) (R^2 = 0.3353 and 0.4255, respectively). In contrast, there was no correlation between the activities of SRPKs and the Rc0.1 values (R^2 < 0.0468) (Fig. 3A). Next, we compared the levels of splicing alteration and growth inhibition of the compounds. […] Similar correlations between Rc0.1 and GI50 values were also obtained in seven different cancer cell lines after treatment with Cpd-2 or Cpd-3 (Table 2).
(§2) Total RNA was extracted using an RNeasy Miniprep Kit (Qiagen, Valencia, CA) in accordance with the manufacturer’s instructions. Reverse transcription was performed using a TaqMan Reverse Transcription Reagents Kit (Applied Biosystems, Carlsbad, CA). The PCR conditions were as follows: one cycle of 5 min at 95°C; 35 cycles of 30 s at 94°C, 30 s at 60°C, and 30 s at 72°C; and one cycle of 10 min at 72°C. The PCR products were separated in 2% agarose gels. Real-time PCR was performed using a TaqMan MGB probe (Applied Biosystems), and the amount of FAM fluorescence was measured as a function of the PCR cycle number (CT) using an ABI 7900 Real-time PCR System (Applied Biosystems). The expression level of each mRNA was normalized by that of GAPDH mRNA.

COLO205 cells = experiment: Cell viability assay, COLO205; type: cell-based; conditions: Homo sapiens, COLO 205; COLO205 colorectal cancer
A549 cells = experiment: Cell viability assay, A549; type: cell-based; conditions: Homo sapiens; A549 non-small cell lung cancer
MDA-MB-468 cells = experiment: Cell viability assay (CellTiter-Glo), MDA-MB-468; type: cell-based; conditions: Homo sapiens; MDA-MB-468 breast cancer, 72 h
Protocol: MDA-MB-468 cells (5 × 10^3) were seeded into 96-well plates and incubated overnight in 50 μL of culture medium. Next, 50 µL of each compound diluted in culture medium was added to the wells. After 72 h of incubation, viability was determined using the CellTiter-Glo Luminescent Cell Viability Assay (Promega) according to the manufacturer’s instructions. The GI50 values were calculated using GraphPad Prism 5 software with a sigmoid dose-response curve.

[2] = tested on: S6K pre-mRNA splicing in NCI-H23 cells; experiment: S6K pre-mRNA splicing alteration (quantitative RT-PCR), NCI-H23; type: cell-based, human; conditions: ratio of S6K exons 6–8 to exons 6–7 is 0.1
Text: as §1, §2

[3] = tested on: S6K pre-mRNA splicing in COLO320DM cells; experiment: S6K pre-mRNA splicing alteration (quantitative RT-PCR), COLO320DM; type: cell-based, human; conditions: ratio of S6K exons 6–8 to exons 6–7 is 0.1
Text: as §1, §2

| Compound | IC50 (SRPK1) [nM] | Rc0.1 [1] [µM] | GI50 (COLO205 cells) [nM] | GI50 (A549 cells) [nM] | GI50 (MDA-MB-468 cells) [nM] | Rc0.1 [2] [µM] | Rc0.1 [3] [µM] |
| --- | --- | --- | --- | --- | --- | --- | --- |
| CC(C)(CCc1nnn[nH]1)c1ccc(C(=O)Nc2cn3cc(C(F)(F)F)ccc3n2)cc1 [Cpd-1, 4-(2-methyl-4-(1H-tetrazol-5-yl)butan-2-yl)-N-(6-(trifluoromethyl)imidazo[1,2-a]pyridin-2-yl)benzamide] | 61 | >10 | 27300 | 102000 | 30500 | >10 | >10 |
| CC(C)(C)c1ccc(C(=O)Nc2cn3cc(-c4cn[nH]c4)ccc3n2)cn1 [Cpd-2, 6-tert-butyl-N-(6-(1H-pyrazol-4-yl)imidazo[1,2-a]pyridin-2-yl)nicotinamide] | 200 | 1.6 | 1700 | 1900 | 3000 | 0.9 | 0.9 |
| CC(C)(CO)c1ccc(C(=O)Nc2cn3cc(-c4cn[nH]c4)ccc3n2)cc1 [Cpd-3, 4-(1-hydroxy-2-methylpropan-2-yl)-N-(6-(1H-pyrazol-4-yl)imidazo[1,2-a]pyridin-2-yl)benzamide] | 130 | 2.6 | 2100 | 2600 | 3400 | 1.1 | 1.1 |
